Key:
Assay type in all cases: in vivo
[1] = system: wheat (Triticum aestivum); assay: Test A postemergence, wheat; settings: Postemergence, 0 to 100 scale (0 no effect, 100 complete control)
Method in brief: (§1)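 Barnyardgrass, wheat and galium were treated postemergence at the one- to two-leaf stage (2 to 10 cm) with chemicals formulated in non-phytotoxic solvent plus surfactant, grown in loam soil–sand pots. Pigweed was sown in the same blend and given a preemergence directed soil spray.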

[2] = system: Ryegrass, Italian (Italian ryegrass, Lolium multiflorum); assay: Test A preemergence, Ryegrass, Italian; settings: Preemergence; for Plant response rating, Ryegrass, Italian: 0 to 100 scale (0 no effect, 100 complete control); for Ryegrass, Italian plant response rating: visual injury on 0 to 100 scale (0 no effect, 100 complete control), approximately 10 days
Method in brief: (§2)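 Preemergence: seeded pots of loam plus sand received a directed soil spray. Postemergence: seedlings at one to two leaves, 2 to 10 cm high, were oversprayed. Each compound was formulated in a non-phytotoxic solvent mix that included a surfactant.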

[3] = system: pigweed (Amaranthus retroflexus); assay: Test A preemergence, pigweed; settings: for Plant response rating, Pigweed: 0 to 100 scale (0 no effect, 100 complete control); for Pigweed plant response rating: visual injury on 0 to 100 scale (0 no effect, 100 complete control), approximately 10 days
Method in brief: as §1

[4] = system: barnyardgrass (Echinochloa crus-galli); assay: Test A postemergence, barnyardgrass; settings: Postemergence, 0 to 100 scale (0 no effect, 100 complete control)
Method in brief: as §1

kochia (Bassia scoparia) [5] = assay: Test A preemergence, kochia; settings: Preemergence; for Plant response rating, Kochia: 0 to 100 scale (0 no effect, 100 complete control); for Kochia plant response rating: visual injury on 0 to 100 scale (0 no effect, 100 complete control), approximately 10 days
Method in brief: as §2

[6] = system: pigweed (Amaranthus retroflexus); assay: Test A postemergence, pigweed; settings: Postemergence, 0 to 100 scale (0 no effect, 100 complete control)
Method in brief: as §2

[7] = system: galium (catchweed bedstraw, Galium aparine); assay: Test A postemergence, galium; settings: Postemergence, 0 to 100 scale (0 no effect, 100 complete control)
Method in brief: as §1

[8] = system: ragweed (common ragweed, Ambrosia artemisiifolia); assay: Test A preemergence, ragweed; settings: Preemergence; for Plant response rating, Ragweed: 0 to 100 scale (0 no effect, 100 complete control); for Ragweed plant response rating: visual injury on 0 to 100 scale (0 no effect, 100 complete control), approximately 10 days
Method in brief: as §2

[9] = system: blackgrass (Alopecurus myosuroides); assay: Test A postemergence, blackgrass; settings: Postemergence, 0 to 100 scale (0 no effect, 100 complete control)
Method in brief: as §2

[10] = system: Foxtail, Giant (giant foxtail, Setaria faberi); assay: Test A preemergence, Foxtail, Giant; settings: Preemergence; for Plant response rating, Foxtail, Giant: 0 to 100 scale (0 no effect, 100 complete control); for Foxtail, Giant plant response rating: visual injury on 0 to 100 scale (0 no effect, 100 complete control), approximately 10 days
Method in brief: as §2

[11] = system: ragweed (common ragweed, Ambrosia artemisiifolia); assay: Test A postemergence, ragweed; settings: Postemergence, 0 to 100 scale (0 no effect, 100 complete control)
Method in brief: as §2

[12] = system: Foxtail, Giant (giant foxtail, Setaria faberi); assay: Test A postemergence, Foxtail, Giant; settings: Postemergence, 0 to 100 scale (0 no effect, 100 complete control)
Method in brief: as §2

[13] = system: barnyardgrass (Echinochloa crus-galli); assay: Test A preemergence, barnyardgrass; settings: Preemergence; for Plant response rating, Barnyardgrass: 0 to 100 scale (0 no effect, 100 complete control); for Barnyardgrass plant response rating: visual injury on 0 to 100 scale (0 no effect, 100 complete control), approximately 10 days
Method in brief: as §2

[14] = system: Ryegrass, Italian (Italian ryegrass, Lolium multiflorum); assay: Test A postemergence, Ryegrass, Italian; settings: Postemergence, 0 to 100 scale (0 no effect, 100 complete control)
Method in brief: as §2

kochia (Bassia scoparia) [15] = assay: Test A postemergence, kochia; settings: Postemergence, 0 to 100 scale (0 no effect, 100 complete control)
Method in brief: as §2

corn (Zea mays) = assay: Test A postemergence, corn; settings: Postemergence, 0 to 100 scale (0 no effect, 100 complete control)
Method in brief: as §2

[16] = 500 g ai/ha, visual injury approx. 10 days
[17] = 125 g ai/ha, visual injury, approx. 10 days
[18] = 125 g ai/ha, visual injury approx. 10 days
[19] = 500 g ai/ha, visual injury vs untreated controls after approx. 10 days

With `Cc1cc(F)c(C(=O)N2CCOCC2)cc1NS(=O)(=O)C(F)(F)F` [Compound 240] the “Plant response rating, Wheat” value ([1]; 125 g ai/ha) was 0, the “Plant response rating, Wheat” value [1, 16] was 30 and the “Plant response rating, Ryegrass, Italian” value [2, 17] was 40. For the same molecule, the “Ryegrass, Italian plant response rating” value ([2]; 500 g ai/ha) was 70, the “Plant response rating, Pigweed” value [3, 17] was 0 and the “Pigweed plant response rating” value ([3]; 500 g ai/ha) was 80. For the same molecule, the “Plant response rating, Barnyardgrass” value ([4]; 125 g ai/ha) was 40, the “Plant response rating, Barnyardgrass” value [4, 16] was 70 and the “Plant response rating, Kochia” value (kochia (Bassia scoparia) [5]; [17]) was 70. The “Kochia plant response rating” value (kochia (Bassia scoparia) [5]; 500 g ai/ha) was 90, the “Plant response rating, Pigweed” value ([6]; 125 g ai/ha) was 30 and the “Plant response rating, Pigweed” value [6, 16] was 50. For the same molecule, the “Plant response rating, Galium” value ([7]; 125 g ai/ha) was 50, the “Plant response rating, Galium” value [7, 16] was 70 and the “Plant response rating, Ragweed” value [8, 17] was 30. The “Ragweed plant response rating” value ([8]; 500 g ai/ha) was 50, the “Plant response rating, Blackgrass” value ([9]; 125 g ai/ha) was 0 and the “Plant response rating, Blackgrass” value [9, 16] was 10. For the same molecule, the “Plant response rating, Foxtail, Giant” value [10, 17] was 30, the “Foxtail, Giant plant response rating” value ([10]; 500 g ai/ha) was 80 and the “Plant response rating, Ragweed” value ([11]; 125 g ai/ha) was 70. For the same molecule, the “Plant response rating, Ragweed” value [11, 16] was 90, the “Plant response rating, Foxtail, Giant” value ([12]; 125 g ai/ha) was 20 and the “Plant response rating, Foxtail, Giant” value [12, 16] was 60. For the same molecule, the “Plant response rating, Barnyardgrass” value [13, 17] was 0, the “Barnyardgrass plant response rating” value ([13]; 500 g ai/ha) was 50 and the “Plant response rating, Ryegrass, Italian” value ([14]; 125 g ai/ha) was 30. For the same molecule, the “Plant response rating, Ryegrass, Italian” value [14, 16] was 60, the “Plant response rating, Kochia” value (kochia (Bassia scoparia) [15]; 125 g ai/ha) was 50 and the “Plant response rating, Kochia” value (kochia (Bassia scoparia) [15]; [16]) was 80. For the same molecule, the “Plant response rating, Corn” value (corn (Zea mays); 125 g ai/ha) was 20 and the “Plant response rating, Corn” value (corn (Zea mays); [16]) was 10.
In the case of `Cc1cc(C)c(N(S(=O)(=O)C(F)(F)F)S(=O)(=O)C(F)(F)F)cc1C(=O)N1CCC(Cl)CC1` [Compound 243], the “Plant response rating, Wheat” value ([1]; 125 g ai/ha) is reported as 0, the “Plant response rating, Wheat” value [1, 16] is reported as 30 and the “Plant response rating, Ryegrass, Italian” value [2, 17] is reported as 90. For the same molecule, the “Ryegrass, Italian plant response rating” value ([2]; 500 g ai/ha) was 100, the “Plant response rating, Pigweed” value [3, 17] was 100 and the “Pigweed plant response rating” value ([3]; 500 g ai/ha) was 100. For the same molecule, the “Plant response rating, Barnyardgrass” value ([4]; 125 g ai/ha) was 50, the “Plant response rating, Barnyardgrass” value [4, 16] was 70 and the “Plant response rating, Kochia” value (kochia (Bassia scoparia) [5]; [17]) was 20. For the same molecule, the “Kochia plant response rating” value (kochia (Bassia scoparia) [5]; 500 g ai/ha) was 80, the “Plant response rating, Pigweed” value ([6]; 125 g ai/ha) was 90 and the “Plant response rating, Pigweed” value [6, 16] was 100. The “Plant response rating, Galium” value ([7]; 125 g ai/ha) was 70, the “Plant response rating, Galium” value [7, 16] was 90 and the “Plant response rating, Ragweed” value [8, 17] was 70. The “Ragweed plant response rating” value ([8]; 500 g ai/ha) was 80, the “Plant response rating, Blackgrass” value ([9]; 125 g ai/ha) was 0 and the “Plant response rating, Blackgrass” value [9, 16] was 10. The “Plant response rating, Foxtail, Giant” value [10, 17] was 100, the “Foxtail, Giant plant response rating” value ([10]; 500 g ai/ha) was 100 and the “Plant response rating, Ragweed” value ([11]; 125 g ai/ha) was 30. For the same molecule, the “Plant response rating, Ragweed” value [11, 16] was 90, the “Plant response rating, Foxtail, Giant” value ([12]; 125 g ai/ha) was 0 and the “Plant response rating, Foxtail, Giant” value [12, 16] was 40. For the same molecule, the “Plant response rating, Barnyardgrass” value [13, 17] was 80, the “Barnyardgrass plant response rating” value ([13]; 500 g ai/ha) was 90 and the “Plant response rating, Ryegrass, Italian” value ([14]; 125 g ai/ha) was 0. For the same molecule, the “Plant response rating, Ryegrass, Italian” value [14, 16] was 30, the “Plant response rating, Kochia” value (kochia (Bassia scoparia) [15]; 125 g ai/ha) was 10 and the “Plant response rating, Kochia” value (kochia (Bassia scoparia) [15]; [16]) was 70. For the same molecule, the “Plant response rating, Corn” value (corn (Zea mays); 125 g ai/ha) was 0 and the “Plant response rating, Corn” value (corn (Zea mays); [16]) was 0.
For `Cc1cc(C)c(-c2ccnn(CC(C)C)c2=O)cc1NS(=O)(=O)C(F)(F)F` [Compound 77], the “Plant response rating, Wheat” value [1, 18] was 0, the “Wheat plant response rating” value [1, 19] was 70 and the “Ryegrass, Italian plant response rating” value ([2]; 125 g ai/ha) was 0. The “Plant response rating, Ryegrass, Italian” value ([2]; 500 g ai/ha) was 90, the “Pigweed plant response rating” value ([3]; 125 g ai/ha) was 20 and the “Plant response rating, Pigweed” value ([3]; 500 g ai/ha) was 30. For the same molecule, the “Plant response rating, Barnyardgrass” value [4, 18] was 0, the “Barnyardgrass plant response rating” value [4, 19] was 20 and the “Kochia plant response rating” value (kochia (Bassia scoparia) [5]; 125 g ai/ha) was 0. For the same molecule, the “Plant response rating, Kochia” value (kochia (Bassia scoparia) [5]; 500 g ai/ha) was 0, the “Plant response rating, Pigweed” value [6, 18] was 0 and the “Pigweed plant response rating” value [6, 19] was 0. The “Plant response rating, Galium” value [7, 18] was 0, the “Galium plant response rating” value [7, 19] was 40 and the “Ragweed plant response rating” value ([8]; 125 g ai/ha) was 0. The “Plant response rating, Ragweed” value ([8]; 500 g ai/ha) was 20, the “Plant response rating, Blackgrass” value [9, 18] was 0 and the “Blackgrass plant response rating” value [9, 19] was 0. The “Foxtail, Giant plant response rating” value ([10]; 125 g ai/ha) was 90, the “Plant response rating, Foxtail, Giant” value ([10]; 500 g ai/ha) was 100 and the “Plant response rating, Ragweed” value [11, 18] was 0. For the same molecule, the “Ragweed plant response rating” value [11, 19] was 10, the “Plant response rating, Foxtail, Giant” value [12, 18] was 0 and the “Foxtail, Giant plant response rating” value [12, 19] was 40. The “Barnyardgrass plant response rating” value ([13]; 125 g ai/ha) was 90, the “Plant response rating, Barnyardgrass” value ([13]; 500 g ai/ha) was 90 and the “Plant response rating, Ryegrass, Italian” value [14, 18] was 0. For the same molecule, the “Ryegrass, Italian plant response rating” value [14, 19] was 0, the “Plant response rating, Kochia” value (kochia (Bassia scoparia) [15]; [18]) was 0 and the “Kochia plant response rating” value (kochia (Bassia scoparia) [15]; [19]) was 10. The “Plant response rating, Corn” value (corn (Zea mays); [18]) was 0 and the “Corn plant response rating” value (corn (Zea mays); [19]) was 60.
